Reference: ChEMBL document CHEMBL1140417, “Total and semisynthesis and in vitro studies of both enantiomers of 20-fluorocamptothecin” (Bioorg Med Chem Lett, 2005)
Active and inactive are the calls of the source. The rule behind the calls is not given here.

Target: T1, DNA topoisomerase 1 (Homo sapiens) (UniProt P11387)
T1 sequence (whole entry): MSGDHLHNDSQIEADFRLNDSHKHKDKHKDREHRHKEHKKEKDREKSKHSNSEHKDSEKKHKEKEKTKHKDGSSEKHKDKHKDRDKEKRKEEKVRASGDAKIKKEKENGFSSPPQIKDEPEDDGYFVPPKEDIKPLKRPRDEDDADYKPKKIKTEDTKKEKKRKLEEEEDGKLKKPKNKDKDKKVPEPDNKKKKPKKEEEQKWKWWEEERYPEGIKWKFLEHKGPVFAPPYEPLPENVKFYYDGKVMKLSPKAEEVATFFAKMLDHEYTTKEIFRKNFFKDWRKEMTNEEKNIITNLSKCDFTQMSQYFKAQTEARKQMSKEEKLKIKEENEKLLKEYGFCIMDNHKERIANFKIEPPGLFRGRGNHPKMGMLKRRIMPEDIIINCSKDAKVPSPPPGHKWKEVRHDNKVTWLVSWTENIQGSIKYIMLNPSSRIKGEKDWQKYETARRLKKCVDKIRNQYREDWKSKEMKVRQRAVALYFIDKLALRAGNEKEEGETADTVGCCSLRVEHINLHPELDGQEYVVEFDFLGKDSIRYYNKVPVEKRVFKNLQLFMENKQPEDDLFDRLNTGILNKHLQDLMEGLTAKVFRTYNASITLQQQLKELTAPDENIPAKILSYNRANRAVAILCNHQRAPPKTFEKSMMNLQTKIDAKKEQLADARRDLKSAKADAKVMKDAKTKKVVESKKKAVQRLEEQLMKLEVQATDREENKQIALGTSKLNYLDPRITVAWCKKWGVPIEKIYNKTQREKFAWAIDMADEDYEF
Assay: Inhibition of topoisomerase-1 at 100 uM

Compound | Activity
CC[C@]1(F)C(=O)OCc2c1cc1n(c2=O)Cc2c-1nc1ccc(O)cc1c2[Si](C)(C)C(C)(C)C | inactive
CC[C@]1(F)C(=O)OCc2c1cc1n(c2=O)Cc2cc3c4c(ccc3nc2-1)OCO4 | inactive
CC[C@]1(F)C(=O)OCc2c1cc1n(c2=O)Cc2cc3cc(F)ccc3nc2-1 | inactive
CC[C@]1(F)C(=O)OCc2c1cc1n(c2=O)Cc2cc3cc4c(cc3nc2-1)OCO4 | inactive
CC[C@]1(F)C(=O)OCc2c1cc1n(c2=O)Cc2cc3ccccc3nc2-1 | inactive
CC[C@@]1(F)C(=O)OCc2c1cc1n(c2=O)Cc2cc3ccccc3nc2-1 | Active
